The record followed here is US5068325A, “4,5,7,8-tetrahydro-6H-thiazolo[5,4-d]azepines, their preparation and their use as pharmaceutical compositions” (priority 1988, dated 1991).

By Ki is commonly meant the equilibrium dissociation constant of an inhibitor or competing ligand from its target. Higher therefore signals weaker binding. The term IC50 denotes the concentration needed to halve the response being measured.

Bounds are passed on as bounds.

Data set [1] has as its target T1, serotonin-2(5-HT2)-receptors (Rattus norvegicus, UniProt P14842).
T1 construct: The frontal cortex was dissected out and placed in ice cold 0.32 M saccharose solution; from tissue; host or cells: rat frontal cortex homogenate (Chbb:Thom strain)
Put plainly: affinity for serotonin-2 (5-HT2) receptors by displacement experiments with [3H]-spiperone (rat frontal cortex). The data set is classed as binding. How it is done: Specific binding is obtained from total binding minus non-specific binding.
A male rat (Chbb:Thom strain, about 200 g) was decapitated. The brain was removed. The frontal cortex was dissected out and placed in ice cold 0.32 M saccharose solution; its moist weight was determined. It was homogenised in 10 times the volume (0.32 M) of saccharose solution for 1 minute at 800 rpm in a Potter S (made by Braun of Melsungen). The homogenised material was centrifuged for 10 minutes at 1000×g (=3,000 rpm with a rotor 8×38 ml) in a refrigerated centrifuge. The supernatant was decanted off and homogenised (Polytron, position 5, 1 minute); the sediment was discarded. 5 ml (=0.5 g moist weight) of the tissue suspension thus obtained were made up to 40 ml with buffer (50 mm tris-HCl; pH=7.7 at ambient temperature).
0.8 ml of the buffered homogenised tissue (=10 mg moist weight) were incubated with 0.1 ml of a solution of [^3 H]-spiperone (about 0.2 nmol/1 final concentration) and with 0.1 ml of a solution of the test substance (increasing concentration) for 15 minutes at 37° C. (triple measurement). Incubation was stopped by rapid filtering through a Whatman GF/B filter; rinsing was carried out 3 times, each time with 5 ml of ice cold buffer within a maximum of 10 seconds (Filter Prep Messrs. Ismatec). The radioactivity of the filters was determined by liquid scintillation measurement.
The specific binding is obtained from the total binding minus the non-specific binding. The averages of the triple measurements are entered in a system of coordinates as in 1.3. The IC50 value is the concentration which inhibits the specific binding of [^3 H]-spiperone by 50%.

The subject of another data set is MPTP monkeys. Kind of data set: post-synaptic dopaminergic activity in MPTP monkeys. To be noted: for minimal effective dose: Primates, in Macaca mulatta, im, rhesus monkeys, i.m., read-out: minimum dose (MED) required to alleviate the Parkinson's symptoms. Format: in vivo, rhesus monkey. The source says: 6. Determining the post-synaptic dopaminergic activity in MPTP monkeys (Modified Method of R. S. Burns et al., Proc. Natl. Acad. Sci. 80. 4546 (1983))
The neurotoxin 1-methyl-4-phenyl-1,2,3,6- tetrahydro-pyridine (MPTP) produces in humans and monkeys an irreversible syndrome which in its clinical, pathological, biochemical and pharmacological appearance is very similar to idiopathic Parkinson's disease (Markey et al., Nature 311, 464 (1984)). The reason for this similarity is that MPTP selectively destroys those dopaminergic nerve cells in the substantia nigra of the brain which are also lost by degenerative processes in Parkinson's disease. There is even some discussion that MPTP or an MPTP-like substance might be formed in the body and trigger Parkinson's disease (S. H. Snyder, Nature 311, 514 (1984)). Possibly because of the specific MPTP metabolism, the clinical formation of the MPTP-induced Parkinson syndrome has hitherto been detected only in humans and monkeys. The MPTP model produced in the rhesus monkey is therefore exceptionally suitable for testing the activity of post-synaptically acting dopamine agonists. For this purpose, rhesus monkeys were given MPTP in overall doses of up to about 6 mg/kg of body weight, until the following symptoms appeared: The animals were akinetic and unable to take water and food.
It is clear that with the compounds according to the invention there is no sedative effect or ataxia at a dosage which is several times the MED, which can be put down to the absence of a corresponding activity mediated by the α2- receptors.

The target in a further data set is T2, alpha-2 receptors (Rattus norvegicus, UniProt P22909).
T2 sequence (P22909 1-465): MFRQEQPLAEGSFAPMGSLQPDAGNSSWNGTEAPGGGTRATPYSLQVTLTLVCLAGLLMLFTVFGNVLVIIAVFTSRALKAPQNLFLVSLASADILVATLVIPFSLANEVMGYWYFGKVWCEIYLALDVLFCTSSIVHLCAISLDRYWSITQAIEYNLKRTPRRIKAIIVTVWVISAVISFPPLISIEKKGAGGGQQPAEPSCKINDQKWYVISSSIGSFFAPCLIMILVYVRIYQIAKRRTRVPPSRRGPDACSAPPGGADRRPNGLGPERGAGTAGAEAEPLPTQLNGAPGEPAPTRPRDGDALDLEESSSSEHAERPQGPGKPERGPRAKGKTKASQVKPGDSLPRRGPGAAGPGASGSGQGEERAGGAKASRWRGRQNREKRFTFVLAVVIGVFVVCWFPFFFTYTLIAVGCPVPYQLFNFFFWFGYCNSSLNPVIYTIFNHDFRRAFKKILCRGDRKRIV
Put plainly: affinity for alpha-2 receptors by displacement experiments with [3H]-clonidine (rat cortex membranes). The note with it: read-out: α2-IC50. The data set is classed as binding.

In data set [2] the test system is hypersensitive dopamine receptor. Put plainly: motility triggering in the mouse treated 24 hours earlier with reserpine. The data set is classed as in vivo. On the procedure: This test determines predominantly agonistic effects on the hypersensitive dopamine receptor.
Male mice are treated 24 hours before the experiment with 5 mg/kg i.p. reserpine. The animals are kept at 25°-30° C. and treated three times with 2 ml of a 5% glucose solution in tyrode s.c. (the first time when the reserpine is given, the second time in the evening of the pre-treatment day and the third time on the morning of the test day).
[…] (The injection volume is usually 0.1 ml/10 g of body weight). 30 minutes later the groups of animals are placed in the observation cages (measuring 42 x 24 x 8 cm) and fitted with an infrared lightbeam in order to measure their activity. The value measured is the frequency with which a group of 6 mice pass through the infra-red beam within 5 minutes ("running pulses/5 minutes"; mean at n=3; mean±s.e.m. at n=6).
3 to 6 groups are tested for each substance.

T1 sequence (P14842 whole entry): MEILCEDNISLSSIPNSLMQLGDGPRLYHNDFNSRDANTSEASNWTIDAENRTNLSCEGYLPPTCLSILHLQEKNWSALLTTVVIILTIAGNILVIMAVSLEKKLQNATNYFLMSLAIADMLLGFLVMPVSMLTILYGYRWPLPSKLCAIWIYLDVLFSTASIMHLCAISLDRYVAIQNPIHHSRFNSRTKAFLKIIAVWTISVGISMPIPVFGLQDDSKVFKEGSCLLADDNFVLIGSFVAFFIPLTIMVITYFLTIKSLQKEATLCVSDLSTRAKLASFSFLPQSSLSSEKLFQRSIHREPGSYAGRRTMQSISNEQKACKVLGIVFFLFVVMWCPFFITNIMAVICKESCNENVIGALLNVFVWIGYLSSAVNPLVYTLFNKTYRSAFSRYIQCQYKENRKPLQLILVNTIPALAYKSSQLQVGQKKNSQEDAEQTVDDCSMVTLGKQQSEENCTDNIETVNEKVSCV

In data set [1], `N#Cc1ccc(C=CCN2CCc3nc(N)sc3CC2)cc1` [Example 14b, 2-Amino-6-(3-(4-cyano-phenyl)allyl)-4,5,7,8-tetrahydro-6H-thiazolo[5,4-d]azepine] yielded a Ki of 15000 nM. In addition, the results for the Duration of activity in the data set on MPTP monkeys (0.05 mg/kg i.m. (MED)) and with MPTP monkeys (0.50 mg/kg i.m.) were 2.0 to 5 h and above 5 h, respectively. The Side effects entry with MPTP monkeys (0.05 mg/kg i.m. (MED)) is listed as “none”. Further, the minimal effective dose with MPTP monkeys was found to be 0.05 mg/kg. In addition, at alpha-2 receptors, the IC50 turned out to be 500 nM.

As to `C=CCN1CCc2nc(N)sc2CC1` [Compound A, reference compound], in data set [2] (3 mg/kg s.c.), the “running pulses every 5 minutes” value was 50 running pulses every 5 minutes. Also, the ED (50 running pulses/5 min) in data set [2] (Mus musculus, sc, reserpine-treated mice, s.c., read-out: DLi50 (dosage resulting in 50 running pulses every 5 minutes)) is 3 mg/kg. The molecule further came in with a Ki in data set [1] of 20200 nM. In the data set on MPTP monkeys (0.03 mg/kg i.m. (MED)), this molecule returned a Duration of activity of 0.5 to 1 h. Besides, the “effect on MPTP-induced symptoms” value in the data set with MPTP monkeys (MPTP-treated rhesus monkeys) is on record as “temporary cessation of this phenomenon”. In addition, the minimal effective dose in the data set on MPTP monkeys worked out at 0.03 mg/kg. Besides, at alpha-2 receptors, the concentration for half-maximal inhibition (IC50) is 24 nM.

In data set [1], `Nc1nc2c(s1)CCN(CC=Cc1cccc(OCc3ccccc3)c1)CC2` [Example 4y, 2-Amino-6-(3-(3-benzyloxy-phenyl)allyl)-4,5,7,8-tetrahydro-6H-thiazolo[5,4-d]azepine] came in with a Ki of 470 nM. Moreover, on alpha-2 receptors, the IC50 was determined as 300 nM.

In data set [1], `Nc1nc2c(s1)CCN(CC=Cc1cccc3ccccc13)CC2` [Example 4t, 2-Amino-6-(3-(1-naphthyl)allyl)-4,5,7,8-tetrahydro-6H-thiazolo[5,4-d]azepine] registered a Ki of 26 nM. Also, the IC50 at alpha-2 receptors turned out to be 460 nM.

For the molecule `Nc1nc2c(s1)CCN(Cc1ccc(Cl)cc1)CC2` [Compound B, reference compound], the “running pulses every 5 minutes” value in data set [2] (5 mg/kg s.c.) was 22 running pulses every 5 minutes. Moreover, the “effectiveness in motility triggering compared with compound A” value in data set [2] (reserpine-treated mice, s.c.) is reported as “less effective than compound A”. In addition, the affinity in data set [1], expressed as Ki, was 18400 nM. The Duration of activity in the data set on MPTP monkeys (0.15 mg/kg i.m.) worked out at 5 h. Besides, the half-inhibitory concentration (IC50) on alpha-2 receptors came to 410 nM.

For `Nc1nc2c(s1)CCN(CC=Cc1cc3ccccc3cn1)CC2` [Example 24a, 2-Amino-6-(3-(3-isoquinolinyl)allyl)-4,5,7,8-tetrahydro-6H-thiazolo[5,4-d]azepine], the affinity in data set [1] corresponds to a Ki of 560 nM. The half-maximal inhibitory concentration (IC50) at alpha-2 receptors is 900 nM.

`Nc1nc2c(s1)CCN(CC=Cc1nccc3ccccc13)CC2` [Example 7a, 2-Amino-6-(3-(1-isoquinolinyl)allyl)-4,5,7,8-tetrahydro-6H-thiazolo[5,4-d]azepine] showed a Ki in data set [1] of 120 nM. Further, the IC50 on alpha-2 receptors is 3100 nM.

Take `Nc1nc2c(s1)CCN(CC=Cc1ccccc1N1CCCCC1)CC2` [Example 11p, 2-Amino-6-(3-(2-(1-piperidino)phenyl)-2-propen-1-yl)-4,5,7,8-tetrahydro-6H-thiazolo[5,4-d]azepine]: in data set [1], the Ki is 558 nM. For the same molecule, the IC50 on alpha-2 receptors amounted to 3000 nM.
